In patent US8178506B2, “Oligomeric compounds and compositions for use in modulation of small non-coding RNAs” (Regulus Therapeutics Inc., priority 2003, dated 2012):
In the oligonucleotide strings, read from the 5' end, every base follows the letter of its sugar. An asterisk marks phosphorothioate; unmarked linkages are phosphodiester. Other units and linkages are bracketed, terminal groups are in braces. A string of capitals states the bases alone. e = 2'-O-(2-methoxyethyl) (MOE); [5mC] = 5-methylcytosine; d = 2'-deoxy (DNA)

Tests used:
[1] = system: A549 cells; experiment: Cell cycle assay in A549 cells; assay type: cell-based, human; settings: for % cells in cell cycle phase: G1 / % cells in cell cycle phase: G2/M / % cells in cell cycle phase: S / % cells in cell cycle phase: aneuploid / % cells in cell cycle phase: subG1: A549 cells, relative to the untreated control cells in that phase; for % cells in cell cycle phase: G1 / % cells in cell cycle phase: G2/M / % cells in cell cycle phase: S / % cells in cell cycle phase: aneuploid / % cells in cell cycle phase: subG1 / cell cycle delay or arrest (G2/M), dose response: 24 hours; for cell cycle delay or arrest (G2/M), dose response / G2/M delay or arrest, dose response: A549, 25-, 50-; for cell cycle delay or arrest (G2/M), dose response: 100- or 150 nM; for G2/M delay or arrest, dose response: 100-, or 150 nM
Method: In accordance with the present invention, certain oligomeric compounds targeting miRNAs were selected for dose response studies. Using the cell cycle assay described above, the cell cycle profiles of HeLa or A549 cells treated with varying concentrations of oligomeric compounds of the present invention were assessed.
Concomittent decreases in the percentage of cells in G1-phase of the cell cycle and increases in the percentage of hypodiploid (subG1) cells were also observed.
In a further study, A549 cells were treated with 25-, 50-, 100- or 150 nM of the oligomeric compounds ISIS Numbers 338637 (SEQ ID NO: 464) targeted against mir-96, and ISIS 338769 (SEQ ID NO: 596) targeted against mir-130b, ISIS 338836 (SEQ ID NO: 663) targeted against mir-23a, and ISIS 340350 (SEQ ID NO: 855) targeted against mir-95 (Mourelatos). Cells treated with increasing concentrations of oligomeric compounds were compared to untreated cells, to assess the dose-responsiveness of the observed delay or arrest. The random-mer ISIS 29848 was used as a negative control. Cells were prepared for flow cytometry 24-hours after oligonucleotide treatment. Results of these dose response studies are shown in Table 34, where data are expressed as percentage of cells in each phase relative to the untreated control cells in that phase.

[2] = system: HeLa cells; experiment: Cell cycle assay in HeLa cells; assay type: cell-based, human; settings: for % cells in cell cycle phase: G1 / % cells in cell cycle phase: G2/M / % cells in cell cycle phase: S / % cells in cell cycle phase: aneuploid / % cells in cell cycle phase: subG1: 48 hours after treatment, relative to untreated control (UTC=100); for phase of the cell cycle in which cells arrest or delay: HeLa
[3] = system: HuVECs; experiment: Endothelial tube formation assay in HuVECs; settings: 75 nM
[4] = system: PEPCK-c; experiment: PEPCK-c mRNA expression in HepG2 cells; assay type: cell-based, human; settings: HepG2, 1 nM insulin, 100 nM
[5] = system: T47D cells; experiment: Caspase-3 activity assay (apoptosis) in T47D cells; settings: caspase assay, 200 nM; conclusion from Tables 9-12
[6] = HeLa cells, 150 nM oligomeric compound, 24 hours, relative to untreated control (UTC = 100)
[7] = HeLa cells, 150 nM oligomeric compound
[8] = HeLa cells, 150 nM, 48 hours, relative to untreated control

338637 (antisense TCAGAGCGGAGAGACACAAG; all 2'-MOE, all phosphorothioate, methylation of C not given here) [compound 338637]
% cells in cell cycle phase: G1 ([1]; 25 nM): 100%
% cells in cell cycle phase: G2/M ([1]; 25 nM): 101%
% cells in cell cycle phase: S ([1]; 25 nM): 99%
% cells in cell cycle phase: aneuploid ([1]; 25 nM): 99%
% cells in cell cycle phase: subG1 ([1]; 25 nM): 89%
% cells in cell cycle phase: G1 ([1]; 50 nM): 110%
% cells in cell cycle phase: G2/M ([1]; 50 nM): 107%
% cells in cell cycle phase: S ([1]; 50 nM): 89%
% cells in cell cycle phase: aneuploid ([1]; 50 nM): 120%
% cells in cell cycle phase: subG1 ([1]; 50 nM): 86%
% cells in cell cycle phase: G1 ([1]; 100 nM): 126%
% cells in cell cycle phase: G2/M ([1]; 100 nM): 115%
% cells in cell cycle phase: S ([1]; 100 nM): 73%
% cells in cell cycle phase: aneuploid ([1]; 100 nM): 146%
% cells in cell cycle phase: subG1 ([1]; 100 nM): 67%
% cells in cell cycle phase: G1 ([1]; 150 nM): 123%
% cells in cell cycle phase: G2/M ([1]; 150 nM): 144%
% cells in cell cycle phase: S ([1]; 150 nM): 66%
% cells in cell cycle phase: aneuploid ([1]; 150 nM): 135%
% cells in cell cycle phase: subG1 ([1]; 150 nM): 216%
% cells aneuploid [2, 6]: 188%
% cells in cell cycle phase G1 [2, 6]: 170%
% cells in cell cycle phase G2/M [2, 6]: 84%
% cells in cell cycle phase S [2, 6]: 70%
% cells in cell cycle phase subG1 [2, 6]: 88%
% cells in cell cycle phase: G1 [2, 7]: 90%
% cells in cell cycle phase: G2/M [2, 7]: 117%
% cells in cell cycle phase: S [2, 7]: 109%
% cells in cell cycle phase: aneuploid [2, 7]: 210%
% cells in cell cycle phase: subG1 [2, 7]: 239%

338836 (antisense TCCTCGGTGGCAGAGCTCAG; all 2'-MOE, all phosphorothioate, methylation of C not given here) [compound 338836]
% cells in cell cycle phase: G1 ([1]; 25 nM): 97%
% cells in cell cycle phase: G2/M ([1]; 25 nM): 97%
% cells in cell cycle phase: S ([1]; 25 nM): 103%
% cells in cell cycle phase: aneuploid ([1]; 25 nM): 99%
% cells in cell cycle phase: subG1 ([1]; 25 nM): 76%
% cells in cell cycle phase: G1 ([1]; 50 nM): 113%
% cells in cell cycle phase: G2/M ([1]; 50 nM): 98%
% cells in cell cycle phase: S ([1]; 50 nM): 89%
% cells in cell cycle phase: aneuploid ([1]; 50 nM): 111%
% cells in cell cycle phase: subG1 ([1]; 50 nM): 232%
% cells in cell cycle phase: G1 ([1]; 100 nM): 117%
% cells in cell cycle phase: G2/M ([1]; 100 nM): 116%
% cells in cell cycle phase: S ([1]; 100 nM): 80%
% cells in cell cycle phase: aneuploid ([1]; 100 nM): 153%
% cells in cell cycle phase: subG1 ([1]; 100 nM): 68%
% cells in cell cycle phase: G1 ([1]; 150 nM): 117%
% cells in cell cycle phase: G2/M ([1]; 150 nM): 149%
% cells in cell cycle phase: S ([1]; 150 nM): 69%
% cells in cell cycle phase: aneuploid ([1]; 150 nM): 114%
% cells in cell cycle phase: subG1 ([1]; 150 nM): 178%
% cells aneuploid [2, 6]: 150%
% cells in cell cycle phase G1 [2, 6]: 185%
% cells in cell cycle phase G2/M [2, 6]: 105%
% cells in cell cycle phase S [2, 6]: 53%
% cells in cell cycle phase subG1 [2, 6]: 153%
% cells in cell cycle phase: G1 [2, 7]: 52%
% cells in cell cycle phase: G2/M [2, 7]: 169%
% cells in cell cycle phase: S [2, 7]: 152%
% cells in cell cycle phase: aneuploid [2, 7]: 165%
% cells in cell cycle phase: subG1 [2, 7]: 811%
% cells in cell cycle phase G1 [2, 8]: 97%
% cells in cell cycle phase G2/M [2, 8]: 121%
% cells in cell cycle phase S [2, 8]: 96%
% cells in cell cycle phase aneuploid [2, 8]: 114%
% cells in cell cycle phase subG1 [2, 8]: 303%

GCTTCCCAGCGGCCTATAGT (chemistry not given here) [ISIS 338769]
cell cycle delay or arrest (G2/M), dose response [1]: dose-responsive delay or arrest
phase of the cell cycle in which cells arrest or delay ([2]; 150 nM, 24 hours): G1-phase
phase of the cell cycle in which cells arrest or delay ([2]; 150 nM, 48 hours): S-phase

GGCTGTCAATTCATAGGTCAG (anti-miR; chemistry not fully specified) [ISIS 327902, uniform 2′-MOE PS; targets mir-192-1]
G2/M delay or arrest, dose response [1]: dose-responsive G2/M delay or arrest
tube formation [3]: suppressed tube formation
phase of the cell cycle in which cells arrest or delay ([2]; 150 nM, 24 hours): G2/M-phase
phase of the cell cycle in which cells arrest or delay ([2]; 150 nM, 48 hours): S- and G2/M-phases

ISIS 328342: SEQ ID NO: 451, targeting mir-203 (e[5mC]*eA*eA*eT*eT*dG*d[5mC]*dG*d[5mC]*dT*dA*d[5mC]*dA*dG*dA*eA*e[5mC]*eT*eG*eT)
G2/M delay or arrest, dose response [1]: dose-responsive G2/M delay or arrest
reduction of PEPCK-c mRNA expression [4]: 61%
phase of the cell cycle in which cells arrest or delay ([2]; 150 nM, both 24 and 48 hours): G2/M-phase

ISIS 328383: chimeric 2′-MOE gapmer targeted against the mir-192-1 precursor (eA*eG*eA*eG*eG*dG*dG*dA*dG*dA*d[5mC]*dG*dA*dG*dA*eG*e[5mC]*eA*e[5mC]*eT)
G2/M delay or arrest, dose response [1]: dose-responsive G2/M delay or arrest
apoptosis in T47D cells [5]: induce apoptosis
phase of the cell cycle in which cells arrest or delay ([2]; 150 nM, 24 hours): G2/M-phase
phase of the cell cycle in which cells arrest or delay ([2]; 150 nM, 48 hours): S- and G2/M-phases

ISIS 338637: SEQ ID NO: 464, targeted against mir-96 (TCAGAGCGGAGAGACACAAG; all 2'-MOE, all phosphorothioate, methylation of C not given here)
cell cycle delay or arrest (G2/M), dose response [1]: dose-responsive delay or arrest
phase of the cell cycle in which cells arrest or delay ([2]; 150 nM, 24 hours): G1-phase
phase of the cell cycle in which cells arrest or delay ([2]; 150 nM, 48 hours): S-phase

ISIS 338836: SEQ ID NO: 663, targeted against mir-23a (TCCTCGGTGGCAGAGCTCAG; all 2'-MOE, all phosphorothioate, methylation of C not given here)
cell cycle delay or arrest (G2/M), dose response [1]: dose-responsive delay or arrest
phase of the cell cycle in which cells arrest or delay ([2]; 150 nM, 24 hours): G1-phase
phase of the cell cycle in which cells arrest or delay ([2]; 150 nM, 48 hours): S-phase

ISIS 340350: SEQ ID NO: 855, targeted against mir-95 (Mourelatos) (TGCTCAATAAATACCCGTTGAA; all 2'-MOE, all phosphorothioate, methylation of C not given here)
cell cycle delay or arrest (G2/M), dose response [1]: dose-responsive delay or arrest
phase of the cell cycle in which cells arrest or delay ([2]; 150 nM, 24 hours): G1-phase
phase of the cell cycle in which cells arrest or delay ([2]; 150 nM, 48 hours): S-phase
